# Source: patent US10799593B2, “Nanodiamond particle complexes” (priority 2008, dated 2020)
# Key:
# [1] = PBS compared with water; Pierstorff et al. 2008; cited from earlier work
# [2] = system: RAW 264.7 murine macrophages; assay: DNA fragmentation assay on DOX-ND Parylene C devices; assay type: cell-based; conditions: 16 and 20 hours, DOX positive control 2.5 μg/mL
# Description: Materials and Device Fabrication. A conformal 3 g base layer of Parylene C was deposited on pre-cut 2.5 cm×2.5 cm glass slides with a […] COATING SYSTEMS (SCS) PDS 2010 LABCOATER (SCS, Indianapolis, Ind.). The Parylene layer was oxidized via oxygen plasma treatment in a HARRICK Plasma Cleaner/Sterilizer (Ithaca, N.Y.) at 100 W for one minute. A DOX-ND solution was then added to the base layer so that the final DOX-ND concentration in solution was 6.6 μg/ml. Subsequently, solvent evaporation occurred in isolation at room temperature. Following DOX-ND deposition, an ultra-thin 0.15 g palylene C layer was deposited as an elution-limiting and control element. The final layer of Parylene C was treated with oxygen plasma at 100 W for one minute. Parylene C was pyrolized into a gaseous monomer at 690° C., and deposited at room temperature under vacuum conditions for all depositions. The preceding parameters apply to devices fabricated for spectroscopy studies. The present invention is not limited to these parameters. The concentration of DOX-ND was adjusted for devices used in the DNA fragmentation assay so that the final DOX-ND concentration in solution was 33 μg/ml.
# DNA Fragmentation Assay. […]
# [3] = Spectroscopic analysis of DOX elution from Parylene A bi-layer; assay type: physicochemical; conditions: PBS
# Description: Spectroscopy Analysis. […] Samples were placed in a 12 well plate immersed in 1.0 ml of PBS for 10 min, 20 min, 40 min, 1 hour, 4 hour, and 24 hour increments. After each time point the solution was removed and the drug eluting glass disks were transferred to a vacant well and replenished with […] of PBS. Remaining solutions were analyzed in a DU Series 700 UV-Vis Scanning Spectrophotometer (BECKMAN COULTER, Fullerton, Calif.).
# RAW 264.7 macrophages = assay: Electrophoretic DNA fragmentation assay on Parylene A substrates; assay type: cell-based, murine
# From the text: Substrate Preparation. Plain glass slides were sterilized in 70% ethanol and pre-treated with A-174 Silane (SCS COATINGS, Indianapolis, Ind.) adhesion promoter according to manufacturer's protocol. Approximately 20 grams of Parylene A (UNIGLOBE KISCO, White Plains, N.Y.) was loaded into a Parylene deposition system (PDS) 2010 LABCOTER® 2 (SCS COATINGS.) The deposition took place under previously indicated conditions (Kramer et al. 1984, 22, 475, Yang et al. Journal of Crystal Growth 1998, 183, 385, herein incorporated by reference in their entireties). Application of drug to the base layer of Parylene A was accomplished via desiccation of 100 μg dexmnethasone (SIGMA ALDRICH, St Louis, Mo.), or 25 μg doxorubicin (U.S. PHARMACOPIA, Rockville, Md.) under a laminar flow hood. A second layer of 150 mg of Parylene A was deposited over the drug films to produce the eluting layer.
# Cell Culture Conditions. Macrophage cell line RAW 264.7 (AICC Manassas, Va.) cells were grown in DMEM media ([…] Inc, Hemdon, Va.) supplemented with 10% FBS (AICC) and 1% Penicillin/Streptomycin (LONZA, Walkersville, Md.). Investigation of inflammation pathways utilized lipo-polysacchmide 5 ng/ml (SIGMA ALDRICH) and resultant expression of IL-6 and TNF-α genes. Analysis of cellular apoptosis was accomplished using agarose electrophoresis of DNA fragmentation.
# Electrophoretic Assay. […]
smiles,measurement,setting,value
"COc1cccc2c1C(=O)c1c(O)c3c(c(O)c1C2=O)C[C@@](O)(C(=O)CO)C[C@@H]3O[C@H]1C[C@H](N)[C@H](O)[C@H](C)O1 [DOX, doxorubicin]",solubility,[1],less soluble in PBS
same,DNA fragmentation / onset of apoptosis,[2],rigorous DNA fragmentation
same,"release of DOX, additive spectroscopic scans",[3]; control: DOX applied to a base layer of Parylene A,complete release of DOX
same,"release of DOX, additive spectroscopic scans",[3]; pinhole sample: DOX between Parylene A layers,gradual release of DOX
same,"DNA fragmentation (apoptosis), electrophoretic gel",RAW 264.7 macrophages,fragmentation of DNA indicative of cells actively undergoing apoptosis
